From patent US12552753B2, “Methods and compositions for targeting Tregs using CCR8 inhibitors” (Nanjing Immunophage Biomedical Co., Ltd., priority 2020, dated 2026)
Structures can show the parent of a compound that is named as a salt.

molecular target: CCR8 (Homo sapiens, UniProt P51685); test: Tango assay (Tango-CCR8-Gal4-CHO-K1 cells, CCL1-stimulated, ONE-Glo luminescence); conditions: Tango Assay IC50, Inhibition of CCR8 Tango cell in vitro
Sequence (P51685 whole entry, the tested form may be a part): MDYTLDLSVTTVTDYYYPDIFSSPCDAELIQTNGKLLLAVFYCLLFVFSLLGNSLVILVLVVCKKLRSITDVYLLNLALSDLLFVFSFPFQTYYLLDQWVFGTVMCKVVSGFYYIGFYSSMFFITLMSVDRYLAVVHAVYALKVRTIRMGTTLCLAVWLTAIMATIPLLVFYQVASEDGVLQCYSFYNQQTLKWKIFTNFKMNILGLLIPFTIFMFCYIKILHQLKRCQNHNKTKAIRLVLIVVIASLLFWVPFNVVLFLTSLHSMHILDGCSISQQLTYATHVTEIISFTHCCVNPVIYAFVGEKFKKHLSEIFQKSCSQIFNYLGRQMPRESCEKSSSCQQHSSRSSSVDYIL

IC50	SMILES
> 10 µM	Cc1ccccc1C(=O)Nc1ccc(S(=O)(=O)NC23CC(C2)C3)c2ccccc12 [Compound 63, N-(4-(N-(bicyclo[1.1.1]pentan-1-yl)sulfamoyl)naphthalen-1-yl)-2-methylbenzamide]
> 100 µM	Cc1cc(S(=O)(=O)N[C@H](C)C2CCNCC2)ccc1NC(=O)C1CCC1 [Compound 254, (R)-N-(2-methyl-4-(N-(1-(piperidin-4-yl)ethyl)sulfamoyl)phenyl) cyclobutanecarboxamide]
> 10 µM	CCCC(=O)N1CCC(NS(=O)(=O)c2ccc(N3C(=O)c4ccccc4C3=O)cc2)CC1 [Compound 118, N-(1-butyrylpiperidin-4-yl)-4-(1,3-dioxoisoindolin-2-yl)benzenesulfonamide]
0.012 µM	COC(=O)[C@H](NS(=O)(=O)c1ccc(NC(=O)c2ccccc2C)c2ccccc12)C1CCCCC1 [Compound 50, (R)-methyl 2-cyclohexyl-2-(4-(2-methylbenzamido)naph-thalene-1-sulfonamido)acetate]
> 10 µM	CCCN1CCN(c2c(F)cccc2NS(=O)(=O)c2ccc(NC(=O)c3ccccc3C)c3ccccc23)CC1 [Compound 92, N-(4-(N-(3-fluoro-2-(4-propylpiperazin-1-yl)phenyl)sulfamoyl)naphthalen-1-yl)-2-methylbenzamide]
1.5 µM	CCCC(=O)N1CCC(NS(=O)(=O)c2ccc(Nc3ncnc4ccccc34)c3ccccc23)CC1 [Compound 115, N-(1-butyrylpiperidin-4-yl)-4-(quinazolin-4-ylamino)naphthalene-1-sulfonamide]
0.096 µM	Cc1cc(S(=O)(=O)N[C@H](C)C2CCNCC2)ccc1NC(=O)c1ccsc1 [Compound 211A, (R)-N-(2-methyl-4-(N-(1-(piperidin-4-yl)ethyl)sulfamoyl)phenyl)thiophene-3-carboxamide hydrochloride]
> 10 µM	CC(NS(=O)(=O)c1ccc(-c2cc3ccccc3[nH]2)c2ccccc12)C1CCCCC1 (stereo not drawn) [Compound 149, N-(1-cyclohexylethyl)-4-(1H-indol-2-yl)naphthalene-1-sulfonamide]
> 10 µM	Cc1cc(S(=O)(=O)N[C@H](C)C2CCNCC2)cc(C)c1NC(=O)c1ccccc1 [Compound 181, (R)-N-(2,6-dimethyl-4-(N-(1-(piperidin-4-yl)ethyl)sulfa-moyl)phenyl)benza-mide hydrochloride]
0.026 µM	Cc1ccccc1C(=O)Nc1ccc(S(=O)(=O)N[C@H](C)C2CCNCC2)cc1Br [Compound 192A, (R)-N-(2-bromo-4-(N-(1-(piperidin-4-yl)ethyl)sulfamoyl)phen-yl)-2-methylbenzamide hydrochloride]
> 10 µM	CCCN1CCN(c2cc(NS(=O)(=O)c3ccc(NC(=O)c4ccccc4C)c4ccccc34)ccc2C(=O)O)CC1 [Compound 91, 4-(4-(2-methylbenzamido)naph-thalene-1-sulfonamido)-2-(4-propylpiperazin-1-yl)benzoic acid]
2.79 µM	Cc1ccccc1C(=O)Nc1ccc(S(=O)(=O)NC(C)c2nccs2)c2ccccc12 (stereo not drawn) [Compound 56, 2-methyl-N-(4-(N-(1-(thiazol-2-yl)ethyl)sulfamoyl)naph-thalen-1-yl)benzamide]
0.06 µM	COCCN1CCC([C@@H](C)NS(=O)(=O)c2ccc(NC(=O)c3ccccc3C)c(C)c2)CC1 [Compound 202, (R)-N-(4-(N-(1-(1-(2-methoxyethyl)piperidin-4-yl)ethyl)sulfamoyl)-2-methylphenyl)-2-methylbenzamide]
0.017 µM	COc1cc(NC(=O)c2ccccc2C)c(C)cc1S(=O)(=O)N[C@H](C)C1CCN(C)CC1 [Compound 298, (R)-N-(5-methoxy-2-methyl-4-(N-(1-(1-methylpiperidin-4-yl)ethyl)sulfamoyl)phenyl)-2-methylbenzamide]
0.116 µM	COC(=O)CN1CCCCC1C(C)NS(=O)(=O)c1ccc(NC(=O)c2ccccc2C)c2ccccc12 (single isomer, unassigned) [Compound 70A, methyl 2-(2-(1-(4-(2-methylbenzamido)naph-thalene-1-sulfonamido)ethyl)piper-idin-1-yl)acetate]
0.438 µM	Cc1ccccc1C(=O)Nc1ncc(S(=O)(=O)N[C@H](C)C2CCNCC2)cc1C [Compound 199A, (R)-2-methyl-N-(3-methyl-5-(N-(1-(piperidin-4-yl)ethyl)sulfamoyl)pyridin-2-yl)benzamide hydrochloride]
> 10 µM	Cc1c(C(=O)O)cccc1S(=O)(=O)NC(C)C1CCCCC1 (stereo not drawn) [Compound 143, 3-(N-(1-cyclohexylethyl)sul-famoyl)-2-methylbenzoic acid]

IC50	SMILES
> 10 µM	Cc1ccccc1C(=O)Nc1ccc(S(=O)(=O)NC(=O)c2ccccc2N2CCOCC2)c2ccccc12 [Compound 13, 2-methyl-N-(4-(N-(2-morpholinobenzoyl)sul-famoyl)naphthalen-1-yl)benzamide]
> 10 µM	Cc1ccccc1C(=O)Nc1ccc(S(=O)(=O)N[C@H](C)C2CCNCC2)c(C(F)(F)F)c1 [Compound 189A, (R)-2-methyl-N-(4-(N-(1-(piperidin-4-yl)ethyl)sulfamoyl)-3-(trifluoromethyl)phenyl) benzamide hydrochloride]
> 10 µM	CCCC(=O)N1CCC(NS(=O)(=O)c2ccc(Nc3nccc4ccccc34)c3ccccc23)CC1 [Compound 114, N-(1-butyrylpiperidin-4-yl)-4-(isoquinolin-1-ylamino)naphthalene-1-sulfonamide]
> 10 µM	CC(NS(=O)(=O)c1ccc2[nH]c(=O)[nH]c(=O)c2c1)C1CC2CCC1CC2 (stereo not drawn) [Compound 133, N-(1-(bicyclo[2.2.2]octan-2-yl)ethyl)-2,4-dioxo-1,2,3,4-tetrahydroquinazoline-6-sulfonamide]
> 10 µM	Cc1ccccc1C(=O)Nc1ccc(S(=O)(=O)NC(C)C2CCCN(C(=O)CNC(=O)OC(C)(C)C)C2)c2ccccc12 (stereo not drawn) [Compound 155D, tert-butyl (2-(3-(1-(4-(2-methylbenzamido)naph-thalene-1-sulfonamido)ethyl)piper-idin-1-yl)-2-oxoethyl)carbamate]
> 100 µM	Cc1cc(S(=O)(=O)N[C@H](C)C2CCN(C)CC2)ccc1NC1(c2ccccc2)COC1 [Compound 299, (R)-3-methyl-N-(1-(1-methylpiperidin-4-yl)ethyl)-4-((3-phenyloxetan-3-yl)amino) benzene-sulfonamide]
> 10 µM	CCOC(=O)N1CCCC(C(=O)NS(=O)(=O)c2ccc(NC(=O)c3ccccc3C)c3ccccc23)C1 (stereo not drawn) [Compound 5, ethyl 3-(((4-(2-methylbenzamido)naph-thalen-1-yl)sulfonyl)carbamoyl) piperidine-1-carboxylate]
0.012 µM	Cc1cc(S(=O)(=O)N[C@H](C)C2CCNCC2)ccc1NC(=O)c1ccccc1C(F)(F)F [Compound 249A, (R)-N-(2-methyl-4-(N-(1-(piperidin-4-yl)ethyl)sulfamoyl)phenyl)-2-(trifluoromethyl) benzamide hydrochloride]
> 10 µM	Cc1ccccc1C(=O)Nc1ccc(S(=O)(=O)NC(C)C2CCCN(C(=O)CNC(=O)OC(C)(C)C)C2)c2ccccc12 (single isomer, unassigned) [Compound 155B, tert-butyl (2-(3-(1-(4-(2-methylbenzamido)naph-thalene-1-sulfonamido)ethyl)piper-idin-1-yl)-2-oxoethyl)carbamate]
0.061 µM	Cc1cc(S(=O)(=O)N[C@H](C)C2CCN(CC(F)(F)F)CC2)ccc1NC(=O)c1ccccc1C [Compound 206, (R)-2-methyl-N-(2-methyl-4-(N-(1-(1-(2,2,2-trifluoroethyl)piperidin-4-yl)ethyl)sulfamoyl)phenyl)benzamide]
> 10 µM	Cc1ccccc1C(=O)Nc1ccc(S(=O)(=O)Nc2ccc3c(c2)CN(CCCN(C)C)C3)c2ccccc12 [Compound 35, N-(4-(N-(2-(3-(dimethylamino)propyl)isoindolin-5-yl)sulfamoyl)naphthalen-1-yl)-2-methylbenzamide]
0.015 µM	Cc1cc(S(=O)(=O)N[C@H](C)C2CCN(C(C)C)CC2)ccc1NC(=O)c1ccccc1C [Compound 200, (R)-N-(4-(N-(1-(1-isopropylpiperidin-4-yl)ethyl)sulfamoyl)-2-methylphenyl)-2-methylbenzamide]
> 100 µM	CCN1CCCN(C(c2cccc(NS(=O)(=O)c3ccc4ccccc4c3)c2)C(F)(F)F)CC1 (stereo not drawn) [Compound 279, N-(3-(1-(4-ethyl-1,4-diazepan-1-yl)-2,2,2-trifluoroethyl)phenyl)naphthalene-2-sulfonamide]
0.0018 µM	Cc1ccccc1C(=O)Nc1ccc(S(=O)(=O)NC(C)C2CCCCCC2)c2ccccc12 (stereo not drawn) [Compound 76, N-(4-(N-(1-cycloheptylethyl)sulfamo-yl)naphthalen-1-yl)-2-methylbenzamide]
1.04 µM	Cc1ccccc1C(=O)Nc1ccc(S(=O)(=O)NCc2cccc(N(C)C)c2)c2ccccc12 [Compound 25, N-(4-(N-(3-(dimethylamino)benzyl)sulfamoyl)naphthalen-1-yl)-2-methylbenzamide]
1.65 µM	CCCC(=O)N1CCC(NS(=O)(=O)c2ccc(Nc3nccc(C)n3)c3ccccc23)CC1 [Compound 117, N-(1-butyrylpiperidin-4-yl)-4-((4-methylpyrimidin-2-yl)amino)naphthalene-1-sulfonamide]

same assay, conditions: read-out: Tango Assay IC50, Inhibition of CCR8 Tango cell in vitro

IC50	SMILES
> 10 µM	Cc1ccccc1C(=O)Nc1ccc(S(=O)(=O)Nc2ccc3c(c2)C(=O)N(CCN(C)C)CCO3)c2ccccc12 [Compound 96, N-(4-(N-(4-(2-(dimethylamino)ethyl)-5-oxo-2,3,4,5-tetrahydrobenzo[f][1,4]oxazepin-7-yl)sulfamoyl)naphthalen-1-yl)-2-methylbenzamide]
0.085 µM	Cc1ccccc1C(=O)Nc1ccc(S(=O)(=O)NC(C)C2CCNC2)c2ccccc12 (stereo not drawn) [Compound 66, 2-methyl-N-(4-(N-(1-(pyrrolidin-3-yl)ethyl)sulfamoyl)naph-thalen-1-yl)benzamide]
0.046 µM	COC1CCC([C@@H](C)NS(=O)(=O)c2ccc(NC(=O)c3ccccc3C)c(C)c2)CC1 (single isomer, unassigned) [Compound 293B, N-(4-(N-(1-(4-methoxycyclohexyl)ethyl)sulfamoyl)-2-methylphenyl)-2-methylbenzamide]
